Data on two molecules can be found in publication doi:10.1101/2025.08.24.671973v1 (biorxiv, 2025).

The target in assay [1] is CHI3L1/galectin-3 interaction (hCHI3L1-His with galectin-3-GST) (Homo sapiens, UniProt P36222). As to the kind of experiment: AlphaLISA, inhibition of CHI3L1/galectin-3 interaction. It counts as binding. On the technique in general: In Alpha technology, singlet oxygen from a donor bead excites a nearby acceptor bead.
Assay [2] concerns the target CHI3L1 (hCHI3L1-His) (Homo sapiens, UniProt P36222). Description: SPR. It counts as binding.

CHI3L1 (hCHI3L1-His), sequence (P36222 22-383): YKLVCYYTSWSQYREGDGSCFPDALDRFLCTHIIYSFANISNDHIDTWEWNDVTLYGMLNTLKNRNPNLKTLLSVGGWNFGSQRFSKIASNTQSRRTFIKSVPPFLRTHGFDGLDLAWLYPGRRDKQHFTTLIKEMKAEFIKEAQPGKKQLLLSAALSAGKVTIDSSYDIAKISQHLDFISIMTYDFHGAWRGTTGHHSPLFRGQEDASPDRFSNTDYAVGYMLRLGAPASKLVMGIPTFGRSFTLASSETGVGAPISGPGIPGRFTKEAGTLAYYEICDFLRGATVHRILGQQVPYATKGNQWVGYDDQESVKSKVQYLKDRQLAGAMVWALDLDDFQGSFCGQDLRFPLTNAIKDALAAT
CHI3L1/galectin-3 interaction (hCHI3L1-His with galectin-3-GST), sequence (P36222 22-383): as above
CHI3L1/galectin-3 interaction (hCHI3L1-His with galectin-3-GST), sequence (P17931 2-250 partner): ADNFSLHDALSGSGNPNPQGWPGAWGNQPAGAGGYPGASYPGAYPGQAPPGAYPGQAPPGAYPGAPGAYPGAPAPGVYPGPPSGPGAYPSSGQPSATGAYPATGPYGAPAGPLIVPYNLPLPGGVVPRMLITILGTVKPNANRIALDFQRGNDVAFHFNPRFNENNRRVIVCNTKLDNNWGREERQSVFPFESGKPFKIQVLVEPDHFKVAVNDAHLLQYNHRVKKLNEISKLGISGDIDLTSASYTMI

As to `CC1Cc2ccccc2CN1C(=O)NCc1cc(=O)n2ccccc2n1` (stereo not shown) [1-4], the IC50 (as a rule, the concentration that gives 50% inhibition) in assay [1] came out at 23.5 ± 2 µM. The Kd – broadly, the equilibrium constant for the complex coming apart – in assay [2] is 10.4 ± 1 µM.
The matching figures for `Cc1c(NC(=O)Cn2cnc3sccc3c2=O)cnn1C1CCCC1` [1-7]: 15.4 ± 4.7 µM and 7.4 ± 0.78 µM.
